Blank lines part the entries; values can stand above or below the compound they belong to.
What was measured:
myometrial cells [1] = experiment: [3H]-thymidine incorporation into DNA (DNA synthesis); format: cell-based, human; conditions: FIG. 4; Captopril 0.1 and 1.0 mM; 48 h; serum-free medium
Method: Myometrial cells prepared as described previously were resuspended in culture medium containing DMEM supplemented with 10% (v/v) FCS, 10 mM L-glutamine, 20 mM hepes, 100 U/mi penicillin and 100/μg/ml streptomycin in 24 well plates at a density of approximately 250×10^3 cells per well and maintained at 37° C. in a humidified atmosphere of air/CO2 (19:1).
DNA synthesis was assayed by measuring [^3 H]-thymidine incorporation into DNA. Subconfluent myometrial cells were made quiescent by incubation with serum-free medium for 48 h, the medium being replaced with serum-free medium containing 0.2% (w/v) bovine serum albumin (BSA) and [^3 H]-thymidine (0.2 μCi/well). The cells were further incubated for 48 h in the presence of angiotensin-converting enzyme (ACE) inhibitor (0.1 and 1.0 mM Captopril, hatched and solid columns respectively) or angiotensin II (100 nM AgII, crossed column). The medium was then removed and the cells incubated with 10% cold trichloroacetic acid TCA) at 4° C. for 15 min. TCA-precipitated material was redissolved in 0.2 M NaOH and the radioactivity determined by liquid scintillation counting in a β-scintillation analyser. Positive and negative controls for proliferation were established by incubating cells with 10% fetal calf serum (square column) and by growth in the absence of the agonist in serum-free medium (open column).

[2] = tested on: angiotensin II-induced myometrial cell proliferation; experiment: Inhibition of angiotensin II-induced myometrial cell proliferation, Coulter counter; format: cell-based, human; conditions: for inhibition of angiotensin II-mediated cell proliferation: FIG. 5, 1.00 μM
Method: Tissue samples were placed into sterile calcium and magnesium-free HBSS containing penicillin (100 U/ml) and streptomycin (100 μg/ml) for transfer to the laboratory. Myometrial cells were isolated by collagenase digestion. Briefly, myometrium was finely chopped and incubated in HBSS containing 1 mg/ml collagenase IA, 20 mM Hepes, 100 U/L penicillin, 100 μg/ml streptomycin and 5 μg/ml fungizone at 37° C. until the cells were dispersed. Myometrial cells were obtained by centrifugation for 15 minutes at 400 g over 60% Percoll and the cells washed with HBSS. Myometrial cells were characterised by their ability to respond to oxytocin and staining for actin.
Cells were maintained in 175 cm^2 flasks in Dulbecco's modified Eagle's medium (DMEM) containing 10% (v/v) fetal calf serum (FCS), 1% L-glutamine,20 mM Hepes and 1% antibiotic-antimycotic mixture (10,000 U penicillin, 10 μg streptomycin, and 25 μg ml^-1 fungizone) at 37° C. in a humidified atmosphere of air/CO2 (19:1) until 95% confluent. Thereafter, the cells were trypsinised, washed and re-plated at a density of 10×10^3 cells per well in 24-well plates in 1 ml of DMEM with 10% FCS for the proliferation studies. After 24 hrs, the medium was removed and replaced with serum-free DMEM. After a further 24 hrs, the experiments were initiated on quiescent monolayers of myometrial cells. […] The corresponding medium was replaced every 24 hrs with fresh medium.
At defined time-points, the growth media was removed and the cells were washed with 1 ml of isotonic saline (0.9% sodium chloride), followed by the addition of 1 ml of 10 mM HEPES buffer containing 1.5 mM magnesium chloride, and 2 drops of Zap-oglobin (Coulter Electronics Ltd., Luton, Beds., UK) containing 2.5% acetic acid to each well. The 24-well plate was allowed to incubate at 37° C. for 10 min. After which, the suspended cells were pipetted up and down to disperse the cell clusters. The cell suspension was then added to 9 ml of counting solution containing 0.9% sodium chloride and 0.5% formalin in a Coulter counter container. […] The number of cells in each well was counted at the aperture size of 16 on the Coulter counter (Coulter Electronics Ltd., Luton, Beds U.K.). Three readings were taken for each well and a mean value of the three readings obtained. The mean (±SD) value of cell counts from the triplicate wells was calculated.
Myometrium cells were maintained in Dulbecco's modified Eagle's medium (MD) with 10% (v/v) FCS, containing 1% L-glutamine, 20 mM HEPES and 1% antibiotic-antimycotic mixture (10,000 U penicillin, 10 mg streptomycin) at 37° C. in a humidified atmosphere of air/CO2 (19:1) until 95% confluent. […] The cell growth was measured at day 4 and day 6 by counting cell numbers in a Coulter Counter. […]

[3] = tested on: non-AT1/non-AT2 angiotensin II recognition site; experiment: [125I]angiotensin II receptor autoradiography on myometrium/fibroid sections; format: binding, human; conditions: for displacement of [125I]angiotensin II from non-AT1/non-AT2 angiotensin II recognition site: FIG. 2, unlabeled ligand 0.1 nM, human non-pregnant myometrium and fibroid sections
Method: Frozen myometrium and fibroid tissues were surrounded in embedding medium (OCT compound, Miles Scientific) before 20 μm sections were cut using a cryostat (-15 to -1 9° C.) and thaw mounted onto gelatin-coated glass slides for receptor autoradiographic studies. Sections were stored (less than 2 week) desiccated at -80° C. until used.
Slide mounted human myometrial/fibroid sections were removed from storage and allowed approximately 30 min to equilibrate to room temperature. To reduce endogenous levels of angiotensin II in the tissue, the sections were preincubated for 60 min in incubation buffer (mM; sodium chloride, 150; sodium dihydrogen phosphate, 50; magnesium chloride, 10; ethyleneglycol-bis-(β-amino-ethyl ether)-N,N'-tetra-acetic acid, 5 and 0.4% w/v bovine serum albumin, pH 7.4) at 25° C. […] Immediately following incubation, the tissue sections were washed in ice-cold incubation buffer for 2 min and dipped (1 s) in ice-cold distilled water to remove buffer salts. The sections were rapidly dried in a stream of cold dry air and exposed to Hyperfilm-[^3 H]

myometrial cells [4] = experiment: Myometrial cell proliferation, cell counts in Coulter counter; format: cell-based, human; conditions: for cell count, 0 day (+/-SD) / cell count, 4 days (+/-SD) / cell count, 6 days (+/-SD): Table 1, in 1% FCS
Method: Tissue samples were placed into sterile calcium and magnesium-free HBSS containing penicillin (100 U/ml) and streptomycin (100 μg/ml) for transfer to the laboratory. Myometrial cells were isolated by collagenase digestion. Briefly, myometrium was finely chopped and incubated in HBSS containing 1 mg/ml collagenase IA, 20 mM Hepes, […], 100 μg/ml streptomycin and 5 μg/ml fungizone at 37° C. until the cells were dispersed. Myometrial cells were obtained by centrifugation for 15 minutes at 400 g over 60% Percoll and the cells washed with HBSS. Myometrial cells were characterised by their ability to respond to oxytocin and staining for actin.
Cells were maintained in 175 cm^2 flasks in Dulbecco's modified Eagle's medium (DMEM) containing 10% (v/v) fetal calf serum (FCS), 1% L-glutamine,20 mM Hepes and 1% antibiotic-antimycotic mixture (10,000 U penicillin, […], and 25 μg ml^-1 fungizone) at 37° C. in a humidified atmosphere of air/CO2 (19:1) until 95% confluent. Thereafter, the cells were trypsinised, washed and re-plated at a density of 10×10^3 cells per well in 24-well plates in 1 ml of DMEM with 10% FCS for the proliferation studies. After 24 hrs, the medium was removed and replaced with serum-free DMEM. After a further 24 hrs, the experiments were initiated on quiescent monolayers of myometrial cells. To the serum-starved myometrial cells was added either angiotensin II (0.1 μm or 1.0 μm) in the presence or absence of 1% FCS or bFGF (20 ng/ml) or FCS (1%) alone or DuP753 with or without angiotensin II (0.1 μM) and cell growth measured at day 4 and day 6 by counting cell numbers in a Coulter counter as described below. The corresponding medium was replaced every 24 hrs with fresh medium.
Calibration of the Coulter counter was achieved by counting the myometrium cell suspension at reduced aperture size ranging from 0 to 32. A calibration curve was constructed from the cell counts on the function of the aperture size, and the aperture size corresponding to the middle point of the plateau part of the calibration curve was used for the cell counting. The aperture size used for myometrium cell counting was 16.
At defined time-points, the growth media was removed and the cells were washed with 1 ml of isotonic saline (0.9% sodium chloride), followed by the addition of 1 ml of 10 mM HEPES buffer containing 1.5 mM magnesium chloride, and 2 drops of Zap-oglobin (Coulter Electronics Ltd., Luton, Beds., UK) containing 2.5% acetic acid to each well. The 24-well plate was allowed to incubate at 37° C. for 10 min. After which, the suspended cells were pipetted up and down to disperse the cell clusters. The cell suspension was then added to 9 ml of counting solution containing 0.9% sodium chloride and 0.5% formalin in a Coulter counter container. Each well was washed three times with the counting solution from the same container and effluent collected in the same container. The number of cells in each well was counted at the aperture size of 16 on the Coulter counter (Coulter Electronics Ltd., Luton, Beds U.K.). Three readings were taken for each well and a mean value of the three readings obtained. The mean (±SD) value of cell counts from the triplicate wells was calculated.
As discussed above, FIG. 3(A) illutrates the effect of angiotensin II on myometrial cell proliferation. Myometrium cells were maintained in Dulbecco's modified Eagle's medium (MD) with 10% (v/v) FCS, containing 1% L-glutamine, 20 mM HEPES and 1% antibiotic-antimycotic mixture (10,000 U penicillin, 10 mg streptomycin) at 37° C. in a humidified atmosphere of air/CO2 (19:1) until 95% confluent. For the proliferation studies, the cells were plated at a density of 10×10^3 cells per well in 24 well plates in 1 ml of DMEM with 10% FCS. After 24 hrs the medium was removed and replaced with serum-free DMEM. After a further 24 hrs, the experiment was initiated on quiescent monolayers of myometrial cells. […]

Compound: C[C@H](CS)C(=O)N1CCC[C@H]1C(=O)O [Captopril]
- reduction of DNA synthesis, of control (0% FCS) (myometrial cells [1]): ~50%

Compound: CCCCc1nc(Cl)c(CO)n1Cc1ccc(-c2ccccc2-c2nn[nH]n2)cc1 [DuP753]
- inhibition of the effects of angiotensin II on cell proliferation ([2]; FIG. 3(B), DuP753 1 μM, angiotensin II 0.1 μM, 1% FCS): inhibits
- inhibition of angiotensin II-mediated cell proliferation [2]: significantly inhibited

Compound: Cc1cc(Cn2cnc3c2CC(C(=O)O)N(C(=O)C(c2ccccc2)c2ccccc2)C3)ccc1N (stereo not drawn) [PD123177]
- inhibition of angiotensin II-mediated cell proliferation [2]: significantly inhibited
- inhibition of angiotensin II-mediated cell growth ([2]; preliminary data): inhibits

- displacement of [125I]angiotensin II from non-AT1/non-AT2 angiotensin II recognition site [3]: can selectively displace
Compound: Sar-Ala-angiotensin II

- displacement of [125I]angiotensin II from non-AT1/non-AT2 angiotensin II recognition site [3]: can selectively displace
Compound: Sar-Thr-angiotensin II

- intensity of non-AT1/non-AT2 angiotensin II recognition site labelling in fibroid tissue ([3]; FIG. 1, cold angiotensin II (1 μM)): only disappears
Compound: angiotensin II (DRVYIHPF; Angiotensin-2; UniProt P01019 25-32, looked up)
- increase in myometrial cell proliferation compared to cells in culture medium devoid of angiotensin II (myometrial cells [4]; FIG. 3(A), 0.1 μM, after six days in culture): ~100%
- cell count, 0 day (+/-SD) (myometrial cells [4]): 64.33 +/- 2.73
- cell count, 4 days (+/-SD) (myometrial cells [4]): 167.33 +/- 21.55
- cell count, 6 days (+/-SD) (myometrial cells [4]): 333.67 +/- 7.51

Compound: bFGF: Basic fibroblast growth factor, classic growth factor, from RD Systems
- cell count, 0 day (+/-SD) (myometrial cells [4]): 63.90 +/- 1.88
- cell count, 4 days (+/-SD) (myometrial cells [4]): 167.33 +/- 25.11
- cell count, 6 days (+/-SD) (myometrial cells [4]): 307.33 +/- 49.69

From US5981470A, “Uterine fibroid treatment” (The University of Birmingham, priority 1994, dated 1999)
